Measured values published in patent US7192746B2, “α-Isomaltosyltransferase, process for producing the same and use thereof” (Kabushiki Kaisha Hayashibara Seibutsu Kagaku Kenkyujo, priority 2000, dated 2007).

Columns and labels:
Assay type in all cases: biochemical
[1] = test system: α-isomaltosyl-transferring enzyme from Arthrobacter ramosus S1; experiment: Action on saccharides (substrates, TLC); design: key: −: there was found no substrate change before and after the enzymatic reaction; +: there were found both the reduction of substrate and the formation of cyclotetrasaccharide after the enzymatic reaction; details: 2 units/g substrate, 2% (w/v) substrate, 30° C., pH 6.0, 24 hours
Excerpt: (§1) To examine the saccharides in the supernatant, they were separated from the supernatant by silica gel thin-layer chromatography (abbreviated as “TLC” hereinafter) using, as a developer, a mixture solution of n-butanol, pyridine, and water (=6:4:1), and, as a thin-layer plate, “[…] 60”, an aluminum plate (20×20 cm) for TLC commercialized by […]. The coloration of both the separated total sugars by the sulfuric acid-methanol method and the reducing saccharides by the diphenylamine-aniline method detected a non-reducing saccharide at a position with an Rf value of about 0.31, which was positive on the former detection method but negative on the latter detection method.
(§2) It was tested whether saccharides can be used as substrates for the α-isomaltosyl-transferring enzyme. For the purpose, a solution of maltose, maltotriose, maltotetraose, maltopentaose, maltohexaose, maltoheptaose, isomaltose, isomaltotriose, panose, isomaltosylmaltose, isopanose, α,α-trehalose, kojibiose, nigerose, α,β-trehalose, cellobiose, gentibiose, maltitol, maltotriitol, lactose, sucrose, α-cyclodextrin, β-cyclodextrin, γ-cyclodextrin, soluble starch, pullulan, or dextran was prepared. To each of the above solutions was added two units/g substrate of a purified specimen of either α-isomaltosyl-transferring enzyme from Bacillus globisporus C9 obtained by the method in Experiment 4, Bacillus globisporus C11 obtained by the method in Experiment 7, Bacillus globisporus N75 obtained by the method in Experiment 11, or Arthrobacter ramosus S1 obtained by the method in Experiment 15, or a partially purified α-isomaltosyl-transferring enzyme from Arthrobacter globiformis A19 obtained by the method in Experiment 15. The resulting each solution was adjusted to give a substrate concentration of 2% (w/v) and incubated at 30° C. and pH 6.0 for 24 hours. The enzyme solutions before and after the enzymatic reactions were respectively analyzed on TLC as disclosed in Experiment 1 to confirm whether the enzymes acted on these substrates.

[2] = test system: α-isomaltosyl-transferring enzyme from Bacillus globisporus C11; experiment: Action on saccharides (substrates, TLC); design: key: −: there was found no substrate change before and after the enzymatic reaction; +: there were found both the reduction of substrate and the formation of cyclotetrasaccharide after the enzymatic reaction; details: 2 units/g substrate, 2% (w/v) substrate, 30° C., pH 6.0, 24 hours
Excerpt: as §1, §2

[3] = test system: α-isomaltosyl-transferring enzyme from Bacillus globisporus N75; experiment: Action on saccharides (substrates, TLC); design: key: −: there was found no substrate change before and after the enzymatic reaction; +: there were found both the reduction of substrate and the formation of cyclotetrasaccharide after the enzymatic reaction; details: 2 units/g substrate, 2% (w/v) substrate, 30° C., pH 6.0, 24 hours
Excerpt: as §1, §2

[4] = test system: α-isomaltosyl-transferring enzyme from Bacillus globisporus C9; experiment: Action on saccharides (substrates, TLC); design: key: −: there was found no substrate change before and after the enzymatic reaction; +: there were found both the reduction of substrate and the formation of cyclotetrasaccharide after the enzymatic reaction; details: 2 units/g substrate, 2% (w/v) substrate, 30° C., pH 6.0, 24 hours
Excerpt: as §1, §2

[5] = test system: α-isomaltosyl-transferring enzyme from Arthrobacter globiformis A19; experiment: Action on saccharides (substrates, TLC); design: key: −: there was found no substrate change before and after the enzymatic reaction; +: there were found both the reduction of substrate and the formation of cyclotetrasaccharide after the enzymatic reaction; details: partially purified enzyme, 2 units/g substrate, 2% (w/v) substrate, 30° C., pH 6.0, 24 hours
Excerpt: as §1, §2

[6] = test system: α-isomaltosyl-transferring enzyme from Arthrobacter ramosus S1; experiment: Specificity to transferring acceptor; design: key: −: no saccharide transferred product was formed; ±: a saccharide-transferred product formed in an amount of less than one percent to the total sugars; +: a saccharide-transferred product was formed in an amount of over one percent but below 10% to the total sugars; ++: a saccharide-transferred product was formed in an amount of over 10% to the total sugars; details: panose as saccharide donor, 10 units/g substrate, 3.2% (w/v), 30° C., pH 6.0, 24 hours
Description: (§3) Saccharides were tested as follows to examine whether they can be used as transferring acceptors for the α-isomaltosyl-transferring enzyme of the present invention. A solution of D-glucose, D-xylose, L-xylose, D-galactose, D-fructose, D-mannose, D-arabinose, D-fucose, L-sorbose, L-rhamnose, methyl-α-glucoside (or methyl-α-glucopyranoside), methyl-β-glucoside (or methyl-β-glucopyranoside), N-acetyl-D-glucosamine, D-ribose, L-ribose, D-psicose, sorbitol, xylitol, mannitol, arabitol, ribitol, erythritol, maltose, maltotriose, maltotetraose, maltopentaose, isomaltose, isomaltotriose, α,α-trehalose, α,β-trehalose, kojibiose, nigerose, cellobiose, gentibiose, isopanose, maltitol, maltotriitol, lactose, sucrose, erlose, isomaltosylglucoside, α-cyclodextrin, β-cyclodextrin, γ-cyclodextrin, or L-ascorbic acid was prepared. To each solution was added panose as a saccharide donor to give an equal concentration, admixed with 10 units/g substrate of a purified specimen of either α-isomaltosyl-transferring enzyme from Bacillus globisporus C9 obtained by the method in Experiment 4, Bacillus globisporus C11 obtained by the method in Experiment 7, Bacillus globisporus N75 obtained by the method in Experiment 11, or Arthrobacter ramosus S1 obtained by the method in Experiment 15, or a partially purified specimen of α-isomaltosyl-transferring enzyme from Arthrobacter globiformis A19 obtained by the method in Experiment 18, followed by adjusting the saccharide concentration to 3.2% (w/v). The mixtures thus obtained were enzymatically reacted at 30° C. and Ph 6.0 for 24 hours. The saccharide composition of the resulting reaction mixtures were analyzed on gas chromatography (abbreviated as “GLC” hereinafter) for monosaccharides and disaccharides as testing saccharides, and on HPLC for tri- or higher-saccharides as testing saccharides to confirm whether these saccharides can be used as transferring acceptors for the above enzymes with an index of the positive or negative formation of a saccharide transferred product. In performing GLC, the following apparatuses and conditions were used: GLC apparatus, “GC-16A” commercialized by Shimadzu Corporation, Tokyo, Japan; column, a stainless-steel column, 3 mm in diameter and 2 m in length, packed with 2% “SILICONE OV-17/[…]”, commercialized by GL Sciences Inc., Tokyo, Japan; carrier gas, nitrogen gas at a flow rate of 40 ml/min under temperature conditions of increasing from 160° C. to 320° C. at an increasing temperature rate of 7.5° C./min; and detection, a hydrogen flame ionization detector. In the case of HPLC analysis, the apparatuses and conditions used were: HPLC apparatus, “CCPD” commercialized by Tosoh Corporation, Tokyo, Japan; column, “ODS-AQ-303” commercialized by YMC Co., Ltd., Tokyo, Japan; eluent, water at a flow rate of 0.5 ml/min; and detection, a differential refractometer.

[7] = test system: α-isomaltosyl-transferring enzyme from Bacillus globisporus C11; experiment: Specificity to transferring acceptor; design: key: −: no saccharide transferred product was formed; ±: a saccharide-transferred product formed in an amount of less than one percent to the total sugars; +: a saccharide-transferred product was formed in an amount of over one percent but below 10% to the total sugars; ++: a saccharide-transferred product was formed in an amount of over 10% to the total sugars; details: panose as saccharide donor, 10 units/g substrate, 3.2% (w/v), 30° C., pH 6.0, 24 hours
Description: as §3

[8] = test system: α-isomaltosyl-transferring enzyme from Bacillus globisporus N75; experiment: Specificity to transferring acceptor; design: key: −: no saccharide transferred product was formed; ±: a saccharide-transferred product formed in an amount of less than one percent to the total sugars; +: a saccharide-transferred product was formed in an amount of over one percent but below 10% to the total sugars; ++: a saccharide-transferred product was formed in an amount of over 10% to the total sugars; details: panose as saccharide donor, 10 units/g substrate, 3.2% (w/v), 30° C., pH 6.0, 24 hours
Description: as §3

[9] = test system: α-isomaltosyl-transferring enzyme from Bacillus globisporus C9; experiment: Specificity to transferring acceptor; design: key: −: no saccharide transferred product was formed; ±: a saccharide-transferred product formed in an amount of less than one percent to the total sugars; +: a saccharide-transferred product was formed in an amount of over one percent but below 10% to the total sugars; ++: a saccharide-transferred product was formed in an amount of over 10% to the total sugars; details: panose as saccharide donor, 10 units/g substrate, 3.2% (w/v), 30° C., pH 6.0, 24 hours
Description: as §3

[10] = test system: α-isomaltosyl-transferring enzyme from Arthrobacter globiformis A19; experiment: Specificity to transferring acceptor; design: key: −: no saccharide transferred product was formed; ±: a saccharide-transferred product formed in an amount of less than one percent to the total sugars; +: a saccharide-transferred product was formed in an amount of over one percent but below 10% to the total sugars; ++: a saccharide-transferred product was formed in an amount of over 10% to the total sugars; details: partially purified enzyme, panose as saccharide donor, 10 units/g substrate, 3.2% (w/v), 30° C., pH 6.0, 24 hours
Description: as §3

Row | Compound | Enzymatic action for forming cyclotetrasaccharide, Enzyme of Strain S1 [1] | Enzymatic action for forming cyclotetrasaccharide, Enzyme of Strain C11 [2] | Enzymatic action for forming cyclotetrasaccharide, Enzyme of Strain N75 [3] | Enzymatic action for forming cyclotetrasaccharide, Enzyme of Strain C9 [4] | Enzymatic action for forming cyclotetrasaccharide, Enzyme of Strain A19 [5] | Product of transferring reaction, Enzyme of Strain S1 [6] | Product of transferring reaction, Enzyme of Strain C11 [7] | Product of transferring reaction, Enzyme of Strain N75 [8] | Product of transferring reaction, Enzyme of Strain C9 [9] | Product of transferring reaction, Enzyme of Stain A19 [10]
1 | O=C[C@H](O)[C@@H](O)[C@H](O[C@@H]1O[C@H](CO)[C@@H](O)[C@H](O)[C@H]1O)[C@H](O)CO [Cellobiose, cellobiose] | − | − | − | − | − | + (a saccharide-transferred product was formed in an amount of over one percent but below 10% to the total sugars) | + (a saccharide-transferred product was formed in an amount of over one percent but below 10% to the total sugars) | + (a saccharide-transferred product was formed in an amount of over one percent but below 10% to the total sugars) | + (a saccharide-transferred product was formed in an amount of over one percent but below 10% to the total sugars) | + (a saccharide-transferred product was formed in an amount of over one percent but below 10% to the total sugars)
2 | OC[C@H]1O[C@H](OC[C@H]2O[C@H](O[C@H]3[C@H](O)[C@@H](O)[C@@H](O[C@H]4[C@H](O)[C@@H](O)C(O)O[C@@H]4CO)O[C@@H]3CO)[C@H](O)[C@@H](O)[C@@H]2O)[C@H](O)[C@@H](O)[C@@H]1O (stereo partly drawn) [Isomaltosylmaltose, isomaltosylmaltose] | + | + | + | + | + |  |  |  |  | 
3 | OC[C@H]1O[C@H](OC[C@H]2O[C@H](O[C@H]3[C@H](O)[C@@H](O)C(O)O[C@@H]3CO)[C@H](O)[C@@H](O)[C@@H]2O)[C@H](O)[C@@H](O)[C@@H]1O (stereo partly drawn) [Panose, panose] | + | + | + | + | + |  |  |  |  | 
4 | OC[C@@H](O)[C@@H](O)[C@H](O)[C@@H](O)CO [Sorbitol, sorbitol] |  |  |  |  |  | ± (a saccharide-transferred product formed in an amount of less than one percent to the total sugars) | − | − | − | ± (a saccharide-transferred product formed in an amount of less than one percent to the total sugars)
5 | OC[C@@H](O)[C@H](O)[C@@H](O)CO [Xylitol, xylitol] |  |  |  |  |  | ± (a saccharide-transferred product formed in an amount of less than one percent to the total sugars) | − | − | − | ± (a saccharide-transferred product formed in an amount of less than one percent to the total sugars)
6 | isomaltosylglucoside |  |  |  |  |  | ++ (a saccharide-transferred product was formed in an amount of over 10% to the total sugars) | ++ (a saccharide-transferred product was formed in an amount of over 10% to the total sugars) | ++ (a saccharide-transferred product was formed in an amount of over 10% to the total sugars) | ++ (a saccharide-transferred product was formed in an amount of over 10% to the total sugars) | ++ (a saccharide-transferred product was formed in an amount of over 10% to the total sugars)
7 | maltoheptaose | − | − | − | − | − |  |  |  |  | 
8 | maltohexaose | − | − | − | − | − |  |  |  |  | 
